Among the data in the Kinase Knowledgebase extract (Sharma et al. 2016) are IC50 values, retold here.

Test [1] deals with EGFR (UniProt P00533).
In test [2] the target is EGFR (human) (UniProt P00533). The note with it: nih3t3.

pIC50: −log10 of the molar value.

EGFR, sequence (P00533 whole entry, looked up): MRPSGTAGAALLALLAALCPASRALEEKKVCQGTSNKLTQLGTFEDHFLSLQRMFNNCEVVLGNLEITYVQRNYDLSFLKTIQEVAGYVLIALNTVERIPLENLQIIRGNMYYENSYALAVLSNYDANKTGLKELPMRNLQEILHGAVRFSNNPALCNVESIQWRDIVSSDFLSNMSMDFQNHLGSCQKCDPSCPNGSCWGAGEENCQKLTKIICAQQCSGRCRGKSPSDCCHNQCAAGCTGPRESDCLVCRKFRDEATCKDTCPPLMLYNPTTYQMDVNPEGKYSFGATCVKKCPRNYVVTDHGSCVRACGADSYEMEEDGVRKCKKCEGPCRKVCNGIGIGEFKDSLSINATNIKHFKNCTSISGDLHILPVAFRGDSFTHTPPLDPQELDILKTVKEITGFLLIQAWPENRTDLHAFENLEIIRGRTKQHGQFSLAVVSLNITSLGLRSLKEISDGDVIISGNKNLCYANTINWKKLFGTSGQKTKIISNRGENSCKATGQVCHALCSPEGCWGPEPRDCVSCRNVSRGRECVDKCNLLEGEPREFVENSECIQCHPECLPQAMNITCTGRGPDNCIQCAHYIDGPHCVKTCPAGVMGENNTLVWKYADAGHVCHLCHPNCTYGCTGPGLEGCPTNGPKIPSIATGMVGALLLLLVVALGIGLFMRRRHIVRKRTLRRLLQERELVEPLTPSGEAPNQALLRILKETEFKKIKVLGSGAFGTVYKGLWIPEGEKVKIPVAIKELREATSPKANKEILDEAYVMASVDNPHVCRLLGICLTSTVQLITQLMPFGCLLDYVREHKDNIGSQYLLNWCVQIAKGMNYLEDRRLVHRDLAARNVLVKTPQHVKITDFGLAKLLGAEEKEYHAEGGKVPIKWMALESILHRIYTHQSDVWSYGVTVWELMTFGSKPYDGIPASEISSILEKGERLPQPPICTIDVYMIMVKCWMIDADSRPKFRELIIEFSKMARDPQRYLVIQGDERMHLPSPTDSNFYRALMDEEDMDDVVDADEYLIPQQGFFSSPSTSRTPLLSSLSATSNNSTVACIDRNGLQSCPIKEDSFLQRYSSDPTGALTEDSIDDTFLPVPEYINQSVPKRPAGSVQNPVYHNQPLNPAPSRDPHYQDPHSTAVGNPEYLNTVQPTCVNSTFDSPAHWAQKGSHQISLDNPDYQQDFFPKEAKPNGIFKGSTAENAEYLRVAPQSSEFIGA
EGFR (human), sequence (P00533 whole entry, looked up): as above

A word on the pIC50: it is −log10 of the IC50, conventionally taken in molar units. Read a high pIC50 as a small IC50. In test [1], `COc1ccc(-c2ccc3c(c2)NC(=O)/C3=C\c2[nH]c(C)c(CCCN3CCOCC3)c2C)cc1` had a pIC50 of less than 4.00.
As for `Cc1[nH]c(/C=C2\C(=O)Nc3cc(O)ccc32)c(C)c1CCC(=O)O`, the pIC50 in test [2] is less than 4.30.
For the molecule `Cc1[nH]c(/C=C2\C(=O)Nc3ccc(Br)cc32)c(C)c1CCCN1CCOCC1`, the results for the pIC50 in test [1] and in test [2] were less than 4.00 and 4.35, respectively.
As to `Cc1[nH]c(/C=C2\C(=O)Nc3ccc(I)cc32)c(C)c1CCC(=O)O`, the pIC50 in test [2] is less than 4.30.
As for `Cc1cccc2c1/C(=C/c1[nH]c(C)c(CCC(=O)O)c1C)C(=O)N2`, the pIC50 in test [2] is less than 4.30.
`Cc1[nH]c(/C=C2\C(=O)Nc3ccc(S(=O)(=O)NC(C)C)cc32)c(C)c1CCCN(C)C` had a pIC50 in test [1] of less than 4.00.
Consider `Cc1ccc2c(c1)/C(=C/c1[nH]cc(CCC(=O)O)c1C)C(=O)N2`, for which the pIC50 in test [2] was less than 4.30.
With `Cc1c(CCC(=O)O)c[nH]c1/C=C1\C(=O)Nc2ccccc21`, the pIC50 in test [2] was less than 4.30.
Turning to `Cc1[nH]c(/C=C2\C(=O)Nc3ccc(Cl)cc32)c(C)c1CCCN(C)C`, the negative-log IC50 (pIC50) in test [1] was less than 4.00; in test [2] it was 5.13.
On the same counts, the results for `Cc1cccc2c1/C(=C/c1[nH]c(C)c(CCCN(C)C)c1C)C(=O)N2` are less than 4.00 and 4.69.
In test [2], `Cc1c(CCC(=O)O)c[nH]c1/C=C1\C(=O)Nc2cc(-c3ccccc3)ccc21` had a pIC50 of 4.52.
`Cc1[nH]c(/C=C2\C(=O)Nc3cc(-c4ccccc4)ccc32)c(C)c1CCC(=O)O` gave a pIC50 in test [2] of 4.49.
For the molecule `Cc1c(CCC(=O)O)c[nH]c1/C=C1\C(=O)Nc2ccc(I)cc21`, the negative logarithm of the IC50 (pIC50) in test [2] was less than 4.30.
`Cc1[nH]c(/C=C2\C(=O)Nc3ccc(Cl)cc32)c(C)c1CCC(=O)O` gave a pIC50 in test [2] of less than 4.30.
On to `COc1ccc2c(c1)NC(=O)/C2=C\c1[nH]c(C)c(CCCN(C)C)c1C`, for which the pIC50 in test [1] is less than 4.00.
`Cc1[nH]c(/C=C2\C(=O)Nc3ccccc32)c(C)c1CCCN1CCOCC1`: the pIC50 in test [1] is less than 4.00; in test [2], less than 4.30.
For `Cc1[nH]c(/C=C2\C(=O)Nc3cc(Cl)ccc32)c(C)c1CCCN(C)C`, the pIC50 is 4.06 in test [1] and 4.60 in test [2].
In the case of `COc1ccc2c(c1)/C(=C/c1[nH]c(C)c(CCCN(C)C)c1C)C(=O)N2`, the pIC50 in test [1] was less than 4.00.
Take `Cc1[nH]c(/C=C2\C(=O)Nc3ccc(Br)cc32)c(C)c1CCCN(C)C`: the results for the pIC50 in test [1] and in test [2] were less than 4.00 and 5.39, respectively.
As to `Cc1[nH]c(/C=C2\C(=O)Nc3ccc(S(=O)(=O)N4CCOCC4)cc32)c(C)c1CCCN(C)C`, the values for the pIC50 in test [1] and in test [2] were less than 4.00 and 4.53, respectively.
With `COc1ccccc1-c1ccc2c(c1)NC(=O)/C2=C\c1[nH]c(C)c(CCCN2CCOCC2)c1C`, the pIC50 in test [1] is less than 4.00.
The molecule `COc1cccc(-c2ccc3c(c2)NC(=O)/C3=C\c2[nH]c(C)c(CCCN3CCOCC3)c2C)c1` showed a pIC50 in test [1] of less than 4.00.
Consider `Cc1cccc2c1/C(=C/c1[nH]cc(CCC(=O)O)c1C)C(=O)N2`, for which the pIC50 in test [2] is less than 4.30.
In test [2], `Cc1ccc2c(c1)/C(=C/c1[nH]c(C)c(CCC(=O)O)c1C)C(=O)N2` gave a pIC50 of less than 4.30.
`Cc1c(CCC(=O)O)c[nH]c1/C=C1\C(=O)Nc2cc(Br)ccc21` showed a pIC50 in test [2] of less than 4.30.
Regarding `Cc1[nH]c(/C=C2\C(=O)Nc3ccc(S(N)(=O)=O)cc32)c(C)c1CCCN(C)C`, the results for the pIC50 in test [1] and in test [2] were less than 4.00 and 5.18, respectively.
In the same order, the values of `Cc1[nH]c(/C=C2\C(=O)Nc3cc(-c4ccccc4)ccc32)c(C)c1CCCN(C)C` are less than 4.00 and 5.40.
As to `Cc1[nH]c(/C=C2\C(=O)Nc3ccccc32)c(C)c1CCCN(C)C`, the pIC50 in test [1] was less than 4.00; in test [2], 4.90.
Consider `Cc1c(CCC(=O)O)c[nH]c1/C=C1\C(=O)Nc2cc(Cl)ccc21`, for which the pIC50 in test [2] is less than 4.30.
`Cc1c(CCC(=O)O)c[nH]c1/C=C1\C(=O)Nc2ccc(Br)cc21` had a pIC50 in test [2] of less than 4.30.
On to `Cc1[nH]c(/C=C2\C(=O)Nc3cc(-c4ccccc4)ccc32)c(C)c1CCCN1CCOCC1`, for which the results for the pIC50 in test [1] and in test [2] were less than 4.00 and less than 4.30, respectively.
With `Cc1ccc2c(c1)/C(=C/c1[nH]c(C)c(CCCN(C)C)c1C)C(=O)N2`, the pIC50 in test [1] was less than 4.00; in test [2], 4.60.
With `Cc1[nH]c(/C=C2\C(=O)Nc3ccc(S(=O)(=O)N(C)C)cc32)c(C)c1CCCN(C)C`, the pIC50 in test [1] was less than 4.00; in test [2], 4.95.
As for `Cc1c(CCC(=O)O)c[nH]c1/C=C1\C(=O)Nc2ccc(Cl)cc21`, in test [2], the pIC50 was 4.92.
Same read-out and setting: next, `Cc1[nH]c(/C=C2\C(=O)Nc3ccc(Br)cc32)c(C)c1CCC(=O)O`: less than 4.30.
Turning to `Cc1[nH]c(/C=C2\C(=O)Nc3cccc(CCO)c32)c(C)c1CCCN(C)C`, the results for the pIC50 in test [1] and in test [2] were less than 4.00 and 4.60, respectively.
`COc1ccc(-c2ccc3c(c2)NC(=O)/C3=C\c2[nH]c(C)c(CCCN(C)C)c2C)cc1` gave a pIC50 in test [1] of less than 4.00.
